Assay results as given in patent EP0108606B1, “Steroid compounds” (STERWIN AG., priority 1982, dated 1984).
Where two headings read alike, the source gives them in different places.

Legend:
[1] = Bioavailability Test: plasma levels after oral 60 mg capsules of different trilostane particle size; format: in vivo, volunteers; conditions: for AUC at 24 h: human, plasma, po, 120 mg, 120 mg trilostane (2 x 60 mg capsules) oral, empty stomach, eight volunteers, read-out: Trilostane AUCo^24
Procedure: 60 mg capsules were prepared as described in Example 1 by wet granulation techniques using batches of trilostane comprising (i) particles having a mean equivalent sphere volume diameter of about 10 µm (at least about 95% of the particles having a particle size of less than about 50 pm), (ii) particles of mean equivalent sphere volume diameter of about 45 µm, and (iii) particles of mean equivalent sphere volume diameter greater than 100 pm.
In a three part double blind cross-over study on eight volunteers, each volunteer received a dosage of 120 mg of trilostane (2 x 60 mg capsules) on an empty stomach with 50 ml of tap water. Blood samples (8 ml) were taken pre-medication and at 0.5, 1.0, 2.0, 3.0, 4.0, 5.0, 6.0, 8.0, 10.0 and 24.0 hours and assayed for plasma levels of trilostane and trilostane metabolite. Plasma concentrations were processed by a computer programme giving maximum concentration in plasma (Cmax) and time taken to reach this maximum (Tmax) by inspection. Values for the area under the curve of concentration against time over the time span 0 to t ( [formula] ―where t is time) were then calculated using the trapezoid rule and statistical analysis was carried out using the Students paired t-test.
The following Table I sets out [formula] values (mg.ml^-1.h) for trilostane and 17-keto metabolite.

[2] = In vitro dissolution or release testing of products with different trilostane particle sizes; format: physicochemical; conditions: products containing batches of trilostane of differing particle sizes

## C[C@]12CC[C@H]3[C@@H](CC[C@@]45O[C@@H]4C(O)=C(C#N)C[C@]35C)[C@@H]1CC[C@@H]2O [Trilostane, 2a-cyano-4a,5a-epoxyandrostan-17a-ol-3-one]
[1]; 10 µm material
  ratio of Metabolite AUC to Trilostane AUCo^4: 3.1
[1]; 45 µm material
  ratio of Metabolite AUC to Trilostane AUCo^4: 4.5
[1]; 100 µm material
  ratio of Metabolite AUC to Trilostane AUCo^4: 6.5
[1]; 24 hours after 120 mg oral, in most cases
  plasma levels at 24 hours: could not be detected
[1]; particle size 10 µm
  AUC at 24 h: 1600 µg·h/mL
[1]; particle size 45 µm
  AUC at 24 h: 600 µg·h/mL
[1]; particle size 100 µm
  AUC at 24 h: 200 µg·h/mL
[2]
  dissolution or release properties: could not be differentiated
